Experimental data reported in patent publication US9505749B2, “Quinazolinone compounds and derivatives thereof” (AMGEN INC., priority 2012, dated 2016).
Like-named read-outs stand apart in the source and are kept apart here.

Key:
[1] = system: total β-catenin in SW480 colorectal cells; assay: Total β-catenin MSD 96-well plate assay for SW480 cells; settings: Homo sapiens, SW480, read-out: SW480-Total beta-catenin (TBC) IC50 IP
[2] = target: 6×HIS-tankyrase1 (1091-1325) (Homo sapiens (Human), UniProt O95271); assay: Tankyrase 1 biochemical assay (AlphaLisa, PARsylation); settings: read-out: TNKS1 IC50
PARP2 = PARP2 (Homo sapiens (Human), UniProt Q9UGN5); assay: PARP2 biochemical assay (BPS kit)
[3] = target: 6×HIS-tankyrase 2 (946-1162) (Homo sapiens (Human), UniProt Q9H2K2); assay: Tankyrase 2 biochemical assay (AlphaLisa, PARsylation); settings: 250 nM NAD; read-out: TNKS2 IC50
PARP1 = PARP1 (Homo sapiens (Human), UniProt P09874); assay: PARP1 biochemical assay (Trevigen kit)
From the text: PARP1 biochemical assay was purchased as a kit from Trevigen (cat.#4676-096-K) and used per manufacturers recommendations.

[4] = system: Axin2 accumulation in SW480 cells; assay: Axin2 384 immunofluorescence assay; type: cell-based; settings: Homo sapiens, read-out: Axin2 384 IF EC50

Sequence of PARP1 (P09874 whole entry): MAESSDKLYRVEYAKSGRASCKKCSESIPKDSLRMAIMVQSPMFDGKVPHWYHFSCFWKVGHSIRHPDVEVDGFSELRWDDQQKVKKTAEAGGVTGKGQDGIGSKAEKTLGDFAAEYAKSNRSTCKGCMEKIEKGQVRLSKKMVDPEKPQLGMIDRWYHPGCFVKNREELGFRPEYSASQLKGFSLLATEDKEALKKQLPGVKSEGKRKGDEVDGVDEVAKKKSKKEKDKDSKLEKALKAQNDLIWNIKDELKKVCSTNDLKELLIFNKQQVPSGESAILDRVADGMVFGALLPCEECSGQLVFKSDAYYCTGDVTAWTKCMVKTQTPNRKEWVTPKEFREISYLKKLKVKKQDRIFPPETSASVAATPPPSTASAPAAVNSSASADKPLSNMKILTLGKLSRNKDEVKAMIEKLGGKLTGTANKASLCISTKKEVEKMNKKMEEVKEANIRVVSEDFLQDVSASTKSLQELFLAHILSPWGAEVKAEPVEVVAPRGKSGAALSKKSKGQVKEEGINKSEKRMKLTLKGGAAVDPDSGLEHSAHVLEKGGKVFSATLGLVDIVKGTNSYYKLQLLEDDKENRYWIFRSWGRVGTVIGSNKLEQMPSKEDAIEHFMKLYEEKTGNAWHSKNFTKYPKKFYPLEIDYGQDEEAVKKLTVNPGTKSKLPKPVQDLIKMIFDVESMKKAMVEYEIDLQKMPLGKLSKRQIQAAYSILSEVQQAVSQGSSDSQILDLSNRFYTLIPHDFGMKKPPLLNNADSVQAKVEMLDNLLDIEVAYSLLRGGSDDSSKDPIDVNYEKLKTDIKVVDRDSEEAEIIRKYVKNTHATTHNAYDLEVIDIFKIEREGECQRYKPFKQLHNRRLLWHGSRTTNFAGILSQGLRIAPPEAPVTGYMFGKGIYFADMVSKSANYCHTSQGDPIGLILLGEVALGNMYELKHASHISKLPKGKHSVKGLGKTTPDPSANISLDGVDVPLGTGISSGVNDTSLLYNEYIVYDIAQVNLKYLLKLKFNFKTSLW
Sequence of 6×HIS-tankyrase 2 (946-1162) (Q9H2K2 946-1162): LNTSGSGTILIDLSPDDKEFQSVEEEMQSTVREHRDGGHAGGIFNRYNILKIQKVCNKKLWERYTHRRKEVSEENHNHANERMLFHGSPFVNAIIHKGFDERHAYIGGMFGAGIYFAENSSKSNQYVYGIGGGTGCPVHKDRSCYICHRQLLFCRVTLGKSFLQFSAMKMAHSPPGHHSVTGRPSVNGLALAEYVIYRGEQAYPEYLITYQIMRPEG
Sequence of PARP2 (Q9UGN5 whole entry): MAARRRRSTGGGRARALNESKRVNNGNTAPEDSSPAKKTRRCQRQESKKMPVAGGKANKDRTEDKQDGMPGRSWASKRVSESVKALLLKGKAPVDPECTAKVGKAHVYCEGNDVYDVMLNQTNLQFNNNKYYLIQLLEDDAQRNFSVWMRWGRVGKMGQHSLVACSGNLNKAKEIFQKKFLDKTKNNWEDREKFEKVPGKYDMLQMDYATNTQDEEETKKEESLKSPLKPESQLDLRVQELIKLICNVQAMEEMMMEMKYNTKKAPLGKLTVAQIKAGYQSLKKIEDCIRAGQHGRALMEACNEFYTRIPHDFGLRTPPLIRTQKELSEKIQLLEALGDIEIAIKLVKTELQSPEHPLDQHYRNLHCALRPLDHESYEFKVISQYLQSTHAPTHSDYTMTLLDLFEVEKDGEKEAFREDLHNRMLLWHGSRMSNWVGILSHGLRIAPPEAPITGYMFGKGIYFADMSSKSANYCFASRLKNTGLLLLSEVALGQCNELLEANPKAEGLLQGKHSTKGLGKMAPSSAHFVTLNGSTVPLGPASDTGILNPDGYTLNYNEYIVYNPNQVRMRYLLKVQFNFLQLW
Sequence of 6×HIS-tankyrase1 (1091-1325) (O95271 1091-1325): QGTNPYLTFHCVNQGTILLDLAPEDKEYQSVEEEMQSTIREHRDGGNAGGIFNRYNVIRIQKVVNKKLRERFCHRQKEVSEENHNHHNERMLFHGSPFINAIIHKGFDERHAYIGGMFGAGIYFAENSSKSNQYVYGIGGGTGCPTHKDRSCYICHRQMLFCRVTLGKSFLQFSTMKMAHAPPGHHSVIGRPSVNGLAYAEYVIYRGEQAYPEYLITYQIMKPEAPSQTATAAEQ

Row | IC50 [1] [nM] | IC50 ([2]; 400 nM NAD, 60 minutes at RT) [nM] | IC50 (PARP2) [nM] | IC50 [3] [nM] | IC50 (PARP1) [nM] | EC50 ([4]; SW480 cells, 24 hours) [nM] | Structure (SMILES) | EC50 ([4]; SW480, 24 h) [nM] | IC50 [2] [nM]
1 | > 10000 | 587 | 2840 | 138 | 7680 | – | O=C(CCCc1nc2ccccc2c(=O)[nH]1)N[C@H]1CC[C@H](OCc2ccccc2)C1 (stereo in doubt) [Example 62, N-((1R,3R)-3-(benzyloxy)cyclopentyl)-4-(4-oxo-3,4-dihydroquinazolin-2-yl)butanamide+N-((1S,3S)-3-(benzyloxy)cyclopentyl)-4-(4-oxo-3,4-dihydroquinazolin-2-yl)butanamide] | – | –
2 | 4.83 | 0.0979 | 1070 | 0.16 | 1930 | – | O=C(CCCc1nc2ccccc2c(=O)[nH]1)N[C@H]1CC[C@H](c2ncc(-c3ccccc3)o2)CC1 [Example 95, 4-(4-oxo-3,4-dihydro-2-quinazolinyl)-N-(trans-4-(5-phenyl-1,3-oxazol-2-yl)cyclohexyl)butanamide] | – | –
3 | 1840 | 89.7 | 1920 | 15.9 | 6290 | 1220 | O=C(CCCc1nc2ccccc2c(=O)[nH]1)N1CCC(c2nnc(-c3ccccn3)o2)CC1 [Example 12, 2-(4-oxo-4-(4-(5-(2-pyridinyl)-1,3,4-oxadiazol-2-yl)-1-piperidinyl)butyl)-4(3H)-quinazolinone] | – | –
4 | 1360 | 17.7 | – | 4.01 | 2050 | 4780 | O=C(CCCc1nc2ccccc2c(=O)[nH]1)N1CC=C(n2c(=O)[nH]c3ccccc32)CC1 [Example 46, 2-(4-oxo-4-(4-(2-oxo-2,3-dihydro-1H-benzimidazol-1-yl)-3,6-dihydro-1(2H)-pyridinyl)butyl)-4(3H)-quinazolinone trifluoroacetic acid] | – | –
5 | 111 | 5.15 | 1350 | 0.596 | 1980 | 417 | O=C(CCCc1nc2ccccc2c(=O)[nH]1)N1CCC(c2n[nH]c3ccccc23)CC1 [Example 48, 2-(4-(4-(1H-indazol-3-yl)-1-piperidinyl)-4-oxobutyl)-4(3H)-quinazolinone trifluoroacetic acid] | – | –
6 | 63.9 | 18.8 | 783 | 2.59 | 5410 | 247 | O=C(CCCc1nc2ccccc2c(=O)[nH]1)N1CCC(c2nnc(-c3ccc(F)cc3)o2)CC1 [Example 6, 2-(4-(4-(5-(4-fluorophenyl)-1,3,4-oxadiazol-2-yl)piperidin-1-yl)-4-oxobutyl)quinazolin-4(3H)-one] | – | –
7 | 3.79 | 0.167 | 319 | 3.13 | 2500 | 10.7 | N#Cc1ccc(O[C@H]2CC[C@H](NC(=O)CCSc3nc4c(c(=O)[nH]3)CCCC4)CC2)cc1 [Example 116, N-(trans-4-(4-cyanophenoxy)cyclohexyl)-3-((4-oxo-3,4,5,6,7,8-hexahydroquinazolin-2-yl)thio)propanamide] | – | –
8 | 98.9 | 3.26 | 983 | 1.25 | 1580 | 354 | N#Cc1cccc(O[C@H]2CC[C@H](NC(=O)CCCc3nc4ccccc4c(=O)[nH]3)CC2)c1 [Example 58, N-(trans-4-(3-cyanophenoxy)cyclohexyl)-4-(4-oxo-3,4-dihydro-2-quinazolinyl)butanamide] | – | –
9 | 14.1 | 0.524 | 470 | 0.227 | > 85000 | 59.7 | O=C(CCc1nc2ccccc2c(=O)[nH]1)N[C@H]1CC[C@H](n2c(=O)[nH]c3cc(Cl)ccc32)CC1 [Example 85, N-((1r,4r)-4-(5-chloro-2-oxo-2,3-dihydro-1H-benzo[d]imidazol-1-yl)cyclohexyl)-3-(4-oxo-3,4-dihydroquinazolin-2-yl)propanamide] | – | –
10 | 681 | 8.97 | 363 | 3.53 | 7610 | 2930 | O=C(CCCc1nc2ccccc2c(=O)[nH]1)N1CCC(n2c(=O)oc3ccccc32)CC1 [Example 44, 2-(4-oxo-4-(4-(2-oxo-1,3-benzoxazol-3(2H)-yl)-1-piperidinyl)butyl)-4(3H)-quinazolinone] | – | –
11 | 738 | 3.7 | > 170000 | 3.48 | > 85000 | – | Cc1cc(=O)[nH]c(SCCC(=O)N[C@H]2CC[C@H](c3nnc(-c4ccccc4)o3)CC2)n1 [Example 37, 3-((4-methyl-6-oxo-1,6-dihydropyrimidin-2-yl)thio)-N-((1r,4r)-4-(5-phenyl-1,3,4-oxadiazol-2-yl)cyclohexyl)propanamide] | – | –
12 | 32.6 | 1.01 | 279 | 0.347 | – | 207 | O=C(CCc1nc2ccccc2c(=O)[nH]1)N[C@H]1CC[C@H](n2c(=O)[nH]c3ccc(Cl)cc32)CC1 [Example 86, N-((1r,4r)-4-(6-chloro-2-oxo-2,3-dihydro-1H-benzo[d]imidazol-1-yl)cyclohexyl)-3-(4-oxo-3,4-dihydroquinazolin-2-yl)propanamide] | – | –
13 | 2.03 | 0.0647 | 3730 | 5.35 | – | 2.33 | COc1cccc(-c2nnc([C@H]3CC[C@H](NC(=O)CCSc4nc5ccccc5c(=O)[nH]4)CC3)o2)c1 [Example 120, N-((1r,4r)-4-(5-(3-methoxyphenyl)-1,3,4-oxadiazol-2-yl)cyclohexyl)-3-((4-oxo-3,4-dihydroquinazolin-2-yl)thio)propanamide] | – | –
14 | 138 | 0.129 | 2280 | 9.92 | – | 198 | N#Cc1ccc2c(c1)[nH]c(=O)n2[C@H]1CC[C@H](NC(=O)CSc2nc3ccccc3c(=O)[nH]2)CC1 [Example 103, N-((1r,4r)-4-(5-cyano-2-oxo-2,3-dihydro-1H-benzo[d]imidazol-1-yl)cyclohexyl)-2-((4-oxo-3,4-dihydroquinazolin-2-yl)thio)acetamide] | – | –
15 | 2220 | 12.1 | 89.5 | 6.3 | 1230 | – | O=C(CCSc1nc2ccccc2c(=O)[nH]1)N1CCN(c2n[nH]c3ccccc23)CC1 [Example 94, 2-((3-(4-(1H-indazol-3-yl)-1-piperazinyl)-3-oxopropyl)sulfanyl)-4(3H)-quinazolinone] | – | –
16 | 7.66 | 0.148 | 1120 | 5.02 | 3540 | – | O=C(CCSc1nc2ccc(F)cc2c(=O)[nH]1)N[C@H]1CC[C@H](c2nnc(-c3ccccc3)o2)CC1 [Example 145, 3-((6-fluoro-4-oxo-3,4-dihydro-2-quinazolinyl)sulfanyl)-N-(trans-4-(5-phenyl-1,3,4-oxadiazol-2-yl)cyclohexyl)propanamide] | – | –
17 | 7.27 | 0.0597 | – | 2.52 | > 85000 | 25.8 | O=C(CSc1nc2ccccc2c(=O)[nH]1)N[C@H]1CC[C@H](n2c(=O)[nH]c3cc(Cl)ccc32)CC1 [Example 87, N-((1r,4r)-4-(5-chloro-2-oxo-2,3-dihydro-1H-benzo[d]imidazol-1-yl)cyclohexyl)-2-((4-oxo-3,4-dihydroquinazolin-2-yl)thio)acetamide] | – | –
18 | 3310 | 128 | 99.4 | 73.7 | 1470 | – | O=C(CCSc1nc2ccccc2c(=O)[nH]1)N1CCC(n2c(=O)[nH]c3cc(Cl)ccc32)CC1 [Example 82, 2-((3-(4-(5-chloro-2-oxo-2,3-dihydro-1H-benzo[d]imidazol-1-yl)piperidin-1-yl)-3-oxopropyl)thio)quinazolin-4(3H)-one] | – | –
19 | 741 | 217 | 4680 | 99.8 | – | 1820 | N#Cc1cccc(-c2nnc([C@H]3CC[C@H](NC(=O)CCc4nc5ccccc5c(=O)[nH]4)CC3)o2)c1 [Example 137, N-((1r,4r)-4-(5-(3-cyanophenyl)-1,3,4-oxadiazol-2-yl)cyclohexyl)-3-(4-oxo-3,4-dihydroquinazolin-2-yl)propanamide] | – | –
20 | 349 | 4.78 | > 170000 | 5.46 | > 85000 | – | O=C(CCSc1cc(=O)n2ccccc2n1)N[C@H]1CC[C@H](c2nnc(-c3ccccc3)o2)CC1 [Example 144, 3-((4-oxo-4H-pyrido[1,2-a]pyrimidin-2-yl)sulfanyl)-N-(trans-4-(5-phenyl-1,3,4-oxadiazol-2-yl)cyclohexyl)propanamide] | – | –

Row | Structure (SMILES) | IC50 [1] [nM] | IC50 ([2]; 400 nM NAD, 60 minutes at RT) [nM] | IC50 (PARP2) [nM] | IC50 [3] [nM] | IC50 (PARP1) [nM] | EC50 ([4]; SW480 cells, 24 hours) [nM] | EC50 ([4]; SW480, 24 h) [nM] | IC50 [2] [nM]
21 | O=C(CCCc1nc2ccccc2c(=O)[nH]1)N1CCC(N2C(=O)Cc3ccccc32)CC1 [Example 43, 2-(4-oxo-4-(4-(2-oxo-2,3-dihydro-1H-indol-1-yl)-1-piperidinyl)butyl)-4(3H)-quinazolinone] | 1910 | – | 1060 | 16.6 | 6420 | – | 3880 | 33.5
22 | O=C(CCCc1nc2ccccc2c(=O)[nH]1)N1CCC(N2C(=O)C(F)(F)c3ccccc32)CC1 [Example 60, 2-(4-(4-(3,3-difluoro-2-oxo-2,3-dihydro-1H-indol-1-yl)-1-piperidinyl)-4-oxobutyl)-4(3H)-quinazolinone] | – | – | – | 28.9 | 4530 | – | 2410 | 46
